Measurements published in patent US11524966B1 (Valo Early Discovery, Inc., priority 2017, dated 2022).

Each compound was assayed against T1, USP28 (USP28-5(1-1077)-TEV-6*His; LifeSensors) (Homo sapiens, UniProt Q96RU2) (assay: Ubiquitin-Rhodamine 110 Assay for USP28 Activity, Example A-1(b)). Conditions: Ubiquitin-Rhodamine 110 assay, Example A-1(b).
T1 construct: construct USP28 (USP28-5(1-1077)-TEV-6*His; LifeSensors); TEV cleavage site (C); 6xHis (C); purchased LifeSensors
T1 sequence (Q96RU2 1-1077): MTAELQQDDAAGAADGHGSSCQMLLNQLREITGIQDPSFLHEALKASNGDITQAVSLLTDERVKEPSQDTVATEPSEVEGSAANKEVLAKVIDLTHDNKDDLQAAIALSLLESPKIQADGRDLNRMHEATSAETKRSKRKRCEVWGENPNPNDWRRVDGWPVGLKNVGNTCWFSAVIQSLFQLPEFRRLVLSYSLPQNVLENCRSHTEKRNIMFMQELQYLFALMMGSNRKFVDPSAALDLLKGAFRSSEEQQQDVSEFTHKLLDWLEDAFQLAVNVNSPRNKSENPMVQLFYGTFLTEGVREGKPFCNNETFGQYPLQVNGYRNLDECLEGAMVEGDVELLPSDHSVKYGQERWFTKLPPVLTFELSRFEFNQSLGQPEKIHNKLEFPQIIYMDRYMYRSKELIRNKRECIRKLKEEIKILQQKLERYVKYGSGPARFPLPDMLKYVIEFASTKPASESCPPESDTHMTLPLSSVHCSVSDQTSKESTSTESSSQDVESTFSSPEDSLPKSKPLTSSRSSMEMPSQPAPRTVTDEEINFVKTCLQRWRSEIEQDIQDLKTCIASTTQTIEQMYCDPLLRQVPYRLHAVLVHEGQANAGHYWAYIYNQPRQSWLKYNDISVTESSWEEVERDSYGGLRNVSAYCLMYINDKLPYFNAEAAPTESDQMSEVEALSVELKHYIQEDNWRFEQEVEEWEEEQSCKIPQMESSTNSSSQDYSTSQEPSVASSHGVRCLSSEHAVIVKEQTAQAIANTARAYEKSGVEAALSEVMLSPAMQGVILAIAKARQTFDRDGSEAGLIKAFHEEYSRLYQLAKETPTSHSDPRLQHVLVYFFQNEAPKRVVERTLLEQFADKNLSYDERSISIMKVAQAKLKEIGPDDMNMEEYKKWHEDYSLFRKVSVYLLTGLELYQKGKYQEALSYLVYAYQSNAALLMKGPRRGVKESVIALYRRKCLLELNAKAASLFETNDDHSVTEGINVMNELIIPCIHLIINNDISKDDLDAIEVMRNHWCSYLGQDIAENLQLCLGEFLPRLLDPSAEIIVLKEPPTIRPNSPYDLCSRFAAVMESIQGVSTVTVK
Assay type: biochemical
Summary of the method: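 Single-point screening used 10 μM compound with 90 min room-temperature incubation; follow-up dose-responses (25 μM top, 3-fold) used 75 pM USP28 1-1077 construct, 30 min compound preincubation, 25 nM Ub-Rh110, 20 min reaction, citric acid quench. Rh110 fluorescence normalised to no-enzyme and DMSO controls; IC50 from 4-parameter logistic fit.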

Structure (SMILES)	USP28 A-1(b) IC50 range
Cc1cnc2c(N)c(C(=O)N[C@H]3CCc4cc(N5CCNC[C@@H](O)C5)ccc4C3)sc2n1 (single isomer, unassigned) [Example 7-4]	++ (0.2-2 μM)
Cc1cnc2c(N)c(C(=O)N[C@@H]3CCc4cc(N5CCNC[C@@H](O)C5)ccc4C3)sc2n1 (single isomer, unassigned) [Example 7-5]	++ (0.2-2 μM)
Cc1cnc2c(N)c(C(=O)N[C@H]3CCc4cc(N5CCNC[C@H](O)C5)ccc4C3)sc2n1 (single isomer, unassigned) [Example 7-6]	++ (0.2-2 μM)
Cc1cnc2c(N)c(C(=O)N[C@@H]3CCc4cc(N5CCNC[C@H](O)C5)ccc4C3)sc2n1 (single isomer, unassigned) [Example 7-7]	+ (>2 μM)
Cc1ccc2c(N)c(C(=O)N[C@H]3CCc4cc(N5CCN[C@H](CO)C5)ccc4C3)sc2n1 (single isomer, unassigned) [Example 7-8]	+ (>2 μM)
Cc1ccc2c(N)c(C(=O)N[C@H]3CCc4cc(N5CCN[C@@H](CO)C5)ccc4C3)sc2n1 (single isomer, unassigned) [Example 7-9]	+ (>2 μM)
Cc1ccc2c(N)c(C(=O)N[C@@H]3CCc4cc(N5CCN[C@H](CO)C5)ccc4C3)sc2n1 (single isomer, unassigned) [Example 7-10]	++ (0.2-2 μM)
Cc1ccc2c(N)c(C(=O)N[C@@H]3CCc4cc(N5CCN[C@@H](CO)C5)ccc4C3)sc2n1 (single isomer, unassigned) [Example 7-11]	++ (0.2-2 μM)
Cc1ccc2c(N)c(C(=O)N[C@H]3COc4cc(O[C@@H]5COC6(CNC6)C5)ccc4C3)sc2n1 (single isomer, unassigned) [Example 9-1]	+++ (0.05-0.2 μM)
Cc1ccc2c(N)c(C(=O)N[C@H]3COc4cc(O[C@H]5COC6(CNC6)C5)ccc4C3)sc2n1 (single isomer, unassigned) [Example 9-2]	+++ (0.05-0.2 μM)
Cc1nc2sc(C(=O)N[C@H]3CCc4cc(N5CC6CCC(C5)N6)ccc4C3)c(N)c2cc1F (single isomer, unassigned) [Example 11-3]	++ (0.2-2 μM)
Cc1nc2sc(C(=O)N[C@@H]3CCc4cc(N5CC6CCC(C5)N6)ccc4C3)c(N)c2cc1F (single isomer, unassigned) [Example 11-4]	+++ (0.05-0.2 μM)
COc1ccc2c(N)c(C(=O)N[C@H]3CCc4cc(N5CC6CCC(C5)N6)ccc4C3)sc2n1 (single isomer, unassigned) [Example 11-5]	++ (0.2-2 μM)
COc1ccc2c(N)c(C(=O)N[C@@H]3CCc4cc(N5CC6CCC(C5)N6)ccc4C3)sc2n1 (single isomer, unassigned) [Example 11-6]	+ (>2 μM)
Cc1cnc2c(N)c(C(=O)N[C@H]3CCc4cc(N5CC6CCC(C5)N6)ccc4C3)sc2n1 (single isomer, unassigned) [Example 11-7]	++ (0.2-2 μM)
Cc1cnc2c(N)c(C(=O)N[C@@H]3CCc4cc(N5CC6CCC(C5)N6)ccc4C3)sc2n1 (single isomer, unassigned) [Example 11-8]	+ (>2 μM)
CCn1ccc2cc(C(=O)N[C@H]3CCc4cc(N5CC6CCC(C5)N6)ccc4C3)cnc21 (single isomer, unassigned) [Example 11-9]	+ (>2 μM)
CCn1ccc2cc(C(=O)N[C@@H]3CCc4cc(N5CC6CCC(C5)N6)ccc4C3)cnc21 (single isomer, unassigned) [Example 11-10]	++ (0.2-2 μM)
Cc1ccc2c(N)c(C(=O)N[C@H]3CCc4cc(N5CCNCC5)cc(F)c4C3)sc2n1 (single isomer, unassigned) [Example 11-11]	+ (>2 μM)
Cc1ccc2c(N)c(C(=O)N[C@@H]3CCc4cc(N5CCNCC5)cc(F)c4C3)sc2n1 (single isomer, unassigned) [Example 11-12]	++ (0.2-2 μM)
Cc1cnc2c(N)c(C(=O)N[C@H]3CCc4cc(N5CC6CCC(C5)N6)cc(F)c4C3)sc2n1 (single isomer, unassigned) [Example 11-13]	+ (>2 μM)
Cc1cnc2c(N)c(C(=O)N[C@@H]3CCc4cc(N5CC6CCC(C5)N6)cc(F)c4C3)sc2n1 (single isomer, unassigned) [Example 11-14]	+++ (0.05-0.2 μM)
Cc1ccc2c(N)c(C(=O)N[C@@H]3COc4cc(N5CCNCC5)ccc4[C@@H]3C)sc2n1 (single isomer, unassigned) [Example 11-18]	+ (>2 μM)
CCn1ccc2cc(C(=O)N[C@@H]3CCc4cc(N5CC6CCC(C5)N6)ccc4C3)nnc21 (single isomer, unassigned) [Example 11-23]	+ (>2 μM)
CCn1ccc2cc(C(=O)N[C@H]3CCc4cc(N5CC6CCC(C5)N6)ccc4C3)nnc21 (single isomer, unassigned) [Example 11-24]	+ (>2 μM)

Same assay, conditions: Ubiquitin-Rhodamine 110 assay, format Example A-1(b)

Structure (SMILES)	USP28 A-1(b) IC50 range
Cc1ccc2c(N)c(C(=O)N[C@H]3CCc4cc(N5C6CNCC5C6)ccc4C3)sc2n1 (single isomer, unassigned) [Example 11-35]	++ (0.2-2 μM)
Cc1ccc2c(N)c(C(=O)N[C@@H]3CCc4cc(N5C6CNCC5C6)ccc4C3)sc2n1 (single isomer, unassigned) [Example 11-36]	++ (0.2-2 μM)
Cc1nc2sc(C(=O)N[C@H]3CCc4cc(N5CC6CCC(C5)N6)ccc4C3)c(N)c2s1 (single isomer, unassigned) [Example 12-1]	+ (>2 μM)
Cc1ccc2c(N)c(C(=O)N[C@H]3COc4c(F)c(N5CC6CCC(C5)N6)cc(F)c4C3)sc2n1 (single isomer, unassigned) [Example 13-1]	++++ (0.001-0.05 μM)
Cc1ccc2c(N)c(C(=O)N[C@@H]3COc4c(F)c(N5CC6CCC(C5)N6)cc(F)c4C3)sc2n1 (single isomer, unassigned) [Example 13-2]	+ (>2 μM)
Cc1ccc2c(N)c(C(=O)N[C@@H]3COc4cc(N5CCNCC5)c(Cl)cc4C3)sc2n1 (single isomer, unassigned) [Example 13-6]	+++ (0.05-0.2 μM)
Cc1ccc2c(N)c(C(=O)N[C@@H]3CCc4cc(N5CCNCC5)cnc4C3)sc2n1 (single isomer, unassigned) [Example 15-1]	+ (>2 μM)
Cc1ccc2c(N)c(C(=O)N[C@H]3CCc4cc(N5CCNCC5)cnc4C3)sc2n1 (single isomer, unassigned) [Example 15-2]	+ (>2 μM)
Cc1ccc2c(N)c(C(=O)N[C@@H]3CCc4c(ccc(N5CC6CCC(C5)N6)c4F)C3)sc2n1 (single isomer, unassigned) [Example 21-1]	++ (0.2-2 μM)
Cc1ccc2c(N)c(C(=O)N[C@H]3CCc4c(ccc(N5CC6CCC(C5)N6)c4F)C3)sc2n1 (single isomer, unassigned) [Example 21-2]	++ (0.2-2 μM)
Cc1ccc2c(N)c(C(=O)N[C@@H]3CCc4cc(N5CC6CCC(C5)N6)c(F)cc4C3)sc2n1 (single isomer, unassigned) [Example 21-3]	++++ (0.001-0.05 μM)
Cc1ccc2c(N)c(C(=O)N[C@H]3CCc4cc(N5CC6CCC(C5)N6)c(F)cc4C3)sc2n1 (single isomer, unassigned) [Example 21-4]	++ (0.2-2 μM)
Cc1ccc2c(N)c(C(=O)N[C@@H]3CCc4c(ccc(N5CCNCC5)c4F)C3)sc2n1 (single isomer, unassigned) [Example 21-5]	++++ (0.001-0.05 μM)
Cc1ccc2c(N)c(C(=O)N[C@H]3CCc4c(ccc(N5CCNCC5)c4F)C3)sc2n1 (single isomer, unassigned) [Example 21-6]	++ (0.2-2 μM)
Cc1ccc2c(N)c(C(=O)N[C@@H]3CCc4cc(N5CCNCC5)c(F)cc4C3)sc2n1 (single isomer, unassigned) [Example 21-7]	+++ (0.05-0.2 μM)
Cc1ccc2c(N)c(C(=O)N[C@H]3CCc4cc(N5CCNCC5)c(F)cc4C3)sc2n1 (single isomer, unassigned) [Example 21-8]	+ (>2 μM)
